Test systems include 786-0 renal; COLO 205 colon; EKVX NSCLC; HCC-2998 colon; HT29 colon; IGROV1 ovarian; K-562 leukemia; KM12 colon; MALME-3M melanoma; MDA-MB-231 breast; NCI-H23 lung; OVCAR-4 ovarian; OVCAR-8 ovarian; SK-MEL-5 melanoma; SK-OV-3 ovarian; SR leukemia; UACC-257 melanoma; UACC-62 melanoma.
Holding throughout (experiment): growth of human tumour cells (NCI), 48 h

Each structure is given as a SMILES string.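 A five-concentration, 48-hour dose response in 96-well plates underlies each endpoint, interpolated linearly between surrounding concentrations. TGI denotes the concentration required for complete inhibition of growth.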 Where only a bound is given, the exact number is not on record here.

In the case of `CN(C)c1cccc(-c2cc(=S)c3cc4c(cc3[nH]2)OCO4)c1`, the TGI with 786-0 renal was > 100 µM; in the assay with COLO 205 colon, > 100 µM; in the assay on EKVX NSCLC, > 100 µM; in the assay on HCC-2998 colon it was > 77.7 µM; with HT29 colon, 24.7 µM; with IGROV1 ovarian, > 100 µM. The TGI with K-562 leukemia, with KM12 colon, in the assay on MALME-3M melanoma, in the assay with MDA-MB-231 breast, in the assay on NCI-H23 lung and in the assay with OVCAR-4 ovarian was > 100 µM in each case. The TGI in the assay with OVCAR-8 ovarian, with SK-MEL-5 melanoma, in the assay on SK-OV-3 ovarian, in the assay on SR leukemia, in the assay with UACC-257 melanoma and with UACC-62 melanoma was > 100 µM in each case.
As to `Clc1ccc(Cc2nc3ccccc3o2)cc1`, the TGI in the assay on 786-0 renal, in the assay on COLO 205 colon, with EKVX NSCLC, in the assay with HCC-2998 colon, with HT29 colon and in the assay with IGROV1 ovarian was > 100 µM in each case. Also, the TGI with K-562 leukemia, in the assay on KM12 colon, in the assay with MALME-3M melanoma, in the assay with MDA-MB-231 breast, with NCI-H23 lung and in the assay with OVCAR-4 ovarian was > 100 µM throughout. Moreover, the TGI in the assay on OVCAR-8 ovarian, in the assay on SK-MEL-5 melanoma, in the assay on SK-OV-3 ovarian, in the assay with SR leukemia, in the assay on UACC-257 melanoma and with UACC-62 melanoma was > 100 µM in each case.
Consider `COC1=C(C(c2cc(OC)c(OC)c(OC)c2)c2cc3c(cc2OC)OCO3)C(=O)OC1` (configuration not stated), for which the TGI with 786-0 renal was 65.4 µM; in the assay with COLO 205 colon it was 53.2 µM; in the assay with EKVX NSCLC, > 81.6 µM; in the assay on HCC-2998 colon it was > 100 µM; in the assay on HT29 colon it was 51.4 µM; with IGROV1 ovarian, > 84.8 µM. Also, the TGI in the assay with K-562 leukemia was > 100 µM; in the assay on KM12 colon, 40.9 µM; in the assay with MALME-3M melanoma it was > 73.2 µM; in the assay on MDA-MB-231 breast, > 93.5 µM; with NCI-H23 lung, > 80 µM; with OVCAR-4 ovarian it was > 95.1 µM. The TGI with OVCAR-8 ovarian was 73.9 µM; in the assay on SK-MEL-5 melanoma it was > 62.6 µM; in the assay on SK-OV-3 ovarian, > 78.6 µM; in the assay on SR leukemia it was > 61.7 µM; in the assay on UACC-257 melanoma it was > 100 µM; with UACC-62 melanoma, > 87 µM.
With `CC(=O)c1ccc(Br)cc1NC1=CC(=O)c2ncccc2C1=O`, the TGI with 786-0 renal came out at 15.3 µM; in the assay on COLO 205 colon, 11.4 µM; in the assay on EKVX NSCLC, 19.4 µM; with HCC-2998 colon, 8.54 µM; in the assay on HT29 colon, 12.3 µM; in the assay with IGROV1 ovarian it was 12.4 µM. Also, the TGI with K-562 leukemia stood at 10.1 µM; in the assay with KM12 colon, 11.7 µM; with MALME-3M melanoma, 5.69 µM; with MDA-MB-231 breast, 10.8 µM; in the assay with NCI-H23 lung, 13 µM; in the assay with OVCAR-4 ovarian, 11.2 µM. The TGI in the assay on OVCAR-8 ovarian amounted to 18.2 µM; in the assay on SK-MEL-5 melanoma it was 1.3 µM; in the assay with SK-OV-3 ovarian it was 29.1 µM; with SR leukemia, 5.97 µM; in the assay with UACC-257 melanoma, 4.94 µM; with UACC-62 melanoma, 6.13 µM.
Take `CCNC1=C(NC(=O)c2ccc(F)cc2)C(=O)c2ccccc2C1=O`: the TGI with 786-0 renal is > 100 µM; with COLO 205 colon, > 100 µM; with EKVX NSCLC, > 100 µM; in the assay with HCC-2998 colon, > 100 µM; in the assay on HT29 colon, 53.6 µM; with IGROV1 ovarian it was > 100 µM. Moreover, the TGI in the assay on K-562 leukemia is > 100 µM; with KM12 colon, > 100 µM; in the assay with MALME-3M melanoma it was 47.5 µM; with MDA-MB-231 breast, > 100 µM; in the assay on NCI-H23 lung, > 100 µM; in the assay on OVCAR-4 ovarian, > 100 µM. The TGI with OVCAR-8 ovarian is > 100 µM; with SK-MEL-5 melanoma, > 100 µM; in the assay on SK-OV-3 ovarian, > 100 µM; with SR leukemia, > 100 µM; in the assay with UACC-257 melanoma it was 46.9 µM; with UACC-62 melanoma it was > 100 µM.
Regarding `CC(C)=CCC[C@@H](C)[C@H]1CC[C@@]2(C)[C@@H]3CC[C@H]4C(C)(C)[C@@H](O)CC[C@@]45C[C@@]35CC[C@]12C`, the TGI in the assay with 786-0 renal is > 61.6 µM; in the assay on COLO 205 colon it was > 100 µM; in the assay with EKVX NSCLC, > 88.8 µM; in the assay with HCC-2998 colon it was > 31.6 µM; in the assay with HT29 colon, > 100 µM; in the assay with IGROV1 ovarian, 40.5 µM. Besides, the TGI in the assay on K-562 leukemia is > 100 µM; in the assay with KM12 colon, > 100 µM; in the assay with MALME-3M melanoma, > 100 µM; with MDA-MB-231 breast, > 64.6 µM; in the assay on NCI-H23 lung, 50.7 µM; with OVCAR-4 ovarian it was > 100 µM. Besides, the TGI in the assay on OVCAR-8 ovarian is 42.6 µM; with SK-MEL-5 melanoma, > 64.4 µM; in the assay on SK-OV-3 ovarian, > 100 µM; with SR leukemia, > 67.1 µM; in the assay with UACC-257 melanoma, > 100 µM; in the assay with UACC-62 melanoma it was > 100 µM.
Turning to `CC(C)(C)N(Cc1ccccc1)C(=O)/C=C\S(=O)c1ccccc1` (configuration not stated), the TGI in the assay on 786-0 renal came out at 4.87 µM; with COLO 205 colon, 12.8 µM; in the assay on EKVX NSCLC it was 24.1 µM; in the assay with HCC-2998 colon, 15.5 µM; in the assay on HT29 colon, 14.3 µM; in the assay with IGROV1 ovarian, 17.8 µM. The TGI was > 100 µM in the assay on K-562 leukemia; 18.1 µM with KM12 colon; 12.2 µM with MALME-3M melanoma; 11.8 µM in the assay with MDA-MB-231 breast; 7.74 µM with NCI-H23 lung; 9.25 µM with OVCAR-4 ovarian. For the same compound, the TGI in the assay on OVCAR-8 ovarian was 4.16 µM; in the assay with SK-MEL-5 melanoma, 15.9 µM; with SK-OV-3 ovarian, 19.9 µM; in the assay with SR leukemia it was > 29.6 µM; with UACC-257 melanoma, 16.2 µM; in the assay on UACC-62 melanoma it was 15.2 µM.
Turning to `Cc1cn2cc(-c3cccs3)nc2s1`, the TGI is > 100 µM with 786-0 renal; > 100 µM in the assay on COLO 205 colon; > 100 µM with EKVX NSCLC; > 100 µM in the assay on HCC-2998 colon; > 90.1 µM with HT29 colon; > 100 µM in the assay with IGROV1 ovarian. The TGI in the assay on K-562 leukemia, in the assay on KM12 colon, in the assay with MALME-3M melanoma, in the assay with MDA-MB-231 breast, in the assay on NCI-H23 lung and in the assay on OVCAR-4 ovarian was > 100 µM each time. Also, the TGI in the assay with OVCAR-8 ovarian, in the assay with SK-MEL-5 melanoma, in the assay with SK-OV-3 ovarian, with SR leukemia, in the assay with UACC-257 melanoma and with UACC-62 melanoma was > 100 µM in each case.
For the compound `O=C1C2C3C4C1C1C2[C@H](OCc2ccccc2)C3C1[C@H]4OCc1ccccc1` (some centres not stated), the TGI in the assay on 786-0 renal is > 100 µM; in the assay on COLO 205 colon, 82.5 µM; in the assay on EKVX NSCLC it was 89.1 µM; with HCC-2998 colon, > 100 µM; in the assay with HT29 colon, 32.7 µM; in the assay with IGROV1 ovarian, > 100 µM. For the same compound, the TGI in the assay on K-562 leukemia, in the assay with KM12 colon, in the assay with MALME-3M melanoma, in the assay on MDA-MB-231 breast, in the assay with NCI-H23 lung and with OVCAR-4 ovarian was > 100 µM in each case. The TGI in the assay on OVCAR-8 ovarian, in the assay on SK-MEL-5 melanoma, with SK-OV-3 ovarian, in the assay on SR leukemia, in the assay on UACC-257 melanoma and in the assay on UACC-62 melanoma was > 100 µM in each case.
